Legend:
Format in all cases: in vivo, rat
CMV-infected pups [1] = assay: Postnatal survival of pups infected with CMV in utero
Procedure: (§1) Wistar rats (Janvier Labs, France) were raised and mated at INMED Post Genomic Platform (PPGI) animal facility. Rat cytomegalovirus (rat CMV) recombinant Maastricht strain (RCMV-Δ145-147-gfp) with a green fluorescent protein (GFP) expression cassette, and its production, purification and titration, were reported previously (17). In utero icv injections were performed at E15 as previously described (9,18) in embryos from timed pregnant rats that were anaesthetized with ketamine (100 mg/kg)/xylazine (10 mg/kg). […] Microglia status was modified in the embryos in vivo with doxycycline per os given to the mother throughout pregnancy (200 mg/kg in food pellet chow, Bioserv).
Data were expressed as means ±s.e.m. unless otherwise stated. Non-parametric Mann Whitney test (two-tailed) followed by Bonferroni correction if needed, and non-parametric Kruskall-Wallis test to detect heterogeneous distribution between groups followed by Dunn's post test for multiple comparisons. were used whenever appropriate. Univariate Cox analysis and Fisher's exact test (two-tailed) were used to compare between survival distributions and rates and parametric Student's t test was used to compare between weight gains, whereas Chi-square test with Bonferroni correction and mixed model for repeated data using PROC GLIMMIX with sas 9.4 were used for all other phenotypic comparisons between groups of animals.

microglia [2] = assay: Immunohistochemistry and cell counting of microglia (Iba1, Ed1/Cd68) in CMV-infected pup brain; details: P1, lateral ventricular area; per os to dam E0 to birth; CMV untreated 42.74%, MEM 14.28%
Procedure: Immunohistochemistry experiments were carried out on coronal brain slices (50-100 μm, vibratome, Microm; 14 μm, cryostat, Leica) as described previously (9) with the following primary (anti-Iba1: 1/500, Wako; anti-Cd68, Ed1 clone: 1/200, Millipore) and secondary (Alexa Fluor 568 or 647-conjugated goat anti-rabbit or anti-mouse IgGs; Life Technologies) antibodies. Hoescht 33258 (1:2000, Sigma) was used for nuclei staining.
For cell counting analyses, at least three adjacent brain sections were analyzed throughout the entire z-dimension for each sample using confocal microscopy. […] Cells were counted manually in each brain with Cell Profiler cell image analysis software (Broad Institute Cambridge, Mass., USA). For each channel of stack images, mean image intensity was measured using “MeasureImageIntensity” module and cells were identified with “IdentifyPrimaryObjects” module, in which Min and Max typical diameter of objects was set between 20 and 80 pixel units, respectively, and threshold was corrected by the mean intensity measured previously. Then, using mask images generated with the aforementioned module, colocalization between channels was evaluated with “RelateObjects” and “MaskObjects” in order to determine the number of overlapping objects. Finally, data were exported to a spreadsheet containing the number of quantified cells for each staining and of colocalizations. […]

CMV-infected pups [3] = assay: Righting reflex sensorimotor test; details: treated in utero vs untreated infected pups; P1-P20; p=0.025
Procedure: as §1
(§2) For righting reflex evaluation, rat pups were placed in a supine position, and the time required to flip to the prone position was measured. For the cliff aversion reflex, animals were placed with their forepaws overhanging the edge of a board; the time required to turn >90° away from the edge was recorded. […] Generalized tonic-clonic epileptic seizures were detected visually, usually after animal handling, especially during cage changing and behavioral testing. […] For each rat, the reference electrode was inserted beneath the pinna of the assessed ear, the positive electrode beneath the skin on the vertex of the head, the ground electrode on the animal's back. […] Impedances were monitored to be below 2000Ω. […]

microglia [4] = assay: Flow cytometry of brain leukocytes (CD45, CD11b/c, RT1B) for microglia status
Procedure: as §1
Leukocytes from brains obtained from anesthetized P1 or P7 pups were isolated as previously described (9). 1 to 3×10^6 leukocytes were incubated with Zombie NIR Fixable Viability kit (1:200; Bio legend) for 20 min at RT. Fc receptors were blocked using mouse anti-rat CD32 antibody (FcγII receptor, clone D34-485) for 10 min. at 4° C. to prevent against nonspecific binding. Cells were then stained with antibodies against combinations of cell surface markers as previously listed and described (9). An average of 1.3×10^5 living singlet cells were analyzed per brain equivalent on a BD LSRFortessa cell cytometer and raw data were analyzed using FACSDiva V8.0 software (BD Biosciences).

CMV-infected pups [5] = assay: Cliff aversion reflex sensorimotor test; details: treated in utero vs untreated infected pups; P1-P20; p<10^-4
Procedure: as §1, §2

CMV-infected pups [6] = assay: Generalized tonic-clonic epileptic seizures, detected visually
Procedure: as §1, §2

CMV-infected pups [7] = assay: Hindlimb paralysis, determined visually
Procedure: as §1, §2

With `C[C@H]1c2cccc(O)c2C(=O)C2=C(O)[C@]3(O)C(=O)C(C(N)=O)=C(O)[C@@H](N(C)C)[C@@H]3[C@@H](O)[C@@H]21` [doxycycline] the “infected pups survived at P20” value (CMV-infected pups [1]; dams treated per os throughout pregnancy, untreated 29.6%) was 86.1%, the “lower risk to postnatal death” value (CMV-infected pups [1]; first three postnatal weeks, treated in utero vs untreated CMV-infected, p=0.0006) was 5.1 and the “phagocytic activation index (PAI), ratio of Iba1+ Ed1+ cells to total Iba1+ cells” value (microglia [2]) was 17.32%. For the same compound, the “success to righting, odds ratio” value (CMV-infected pups [3]) was 2.6, the “proportion of reactive CD45low/int, CD11b/c+, RT1B+ microglia (fraction IV)” value (microglia [4]; P7, after treatment discontinuation, untreated 58.93%) was 55.76% and the “proportion of MHC class II-positive reactive microglia (fraction IV: CD45low/int, CD11b/c+, RT1B+)” value (microglia [4]; whole brain at P1, CMV untreated 13.98%, controls 0.73%) was 5.66%. For the same compound, the “success to cliff aversion, odds ratio” value (CMV-infected pups [5]) was 9.9, the “decrease in risk of epileptic seizures” value (CMV-infected pups [6]; period of evaluation, treated in utero, p<10^-4) was 5.9 fold and the “proportion of epileptic CMV-infected rats” value (CMV-infected pups [6]; untreated 24%, p=0.12) was 11%. The “CMV-infected pups displaying hindlimb paralysis” value (CMV-infected pups [7]; first three postnatal weeks, untreated 83.3%, p=0.001) was 50% and the “drop in risk of hindlimb paralysis” value (CMV-infected pups [7]; treated vs untreated, p=0.03) was 6.2 fold.
